According to patent US8163774B2, “Amide-substituted 8-N-benzimidazoles, method for the production thereof, and use of the same as medicaments” (Sanofi-Aventis, priority 2005, dated 2012):

molecular target: T1, DPP-IV from porcine kidneys (Sus scrofa, UniProt P22411); assay: Measurement of the DPP-IV activity (fluorimetric, H-Ala-Pro-AFC substrate); type: biochemical; conditions: DPP-IV 1 mU/ml, substrate H-Ala-Pro-AFC 15 μM, Tris/HCl pH 7.4, room temperature
T1 construct: DPP-IV from porcine kidneys (Sigma, Munich); purchased Sigma, Munich; host or cells: porcine kidney tissue
T1 sequence (P22411 whole entry): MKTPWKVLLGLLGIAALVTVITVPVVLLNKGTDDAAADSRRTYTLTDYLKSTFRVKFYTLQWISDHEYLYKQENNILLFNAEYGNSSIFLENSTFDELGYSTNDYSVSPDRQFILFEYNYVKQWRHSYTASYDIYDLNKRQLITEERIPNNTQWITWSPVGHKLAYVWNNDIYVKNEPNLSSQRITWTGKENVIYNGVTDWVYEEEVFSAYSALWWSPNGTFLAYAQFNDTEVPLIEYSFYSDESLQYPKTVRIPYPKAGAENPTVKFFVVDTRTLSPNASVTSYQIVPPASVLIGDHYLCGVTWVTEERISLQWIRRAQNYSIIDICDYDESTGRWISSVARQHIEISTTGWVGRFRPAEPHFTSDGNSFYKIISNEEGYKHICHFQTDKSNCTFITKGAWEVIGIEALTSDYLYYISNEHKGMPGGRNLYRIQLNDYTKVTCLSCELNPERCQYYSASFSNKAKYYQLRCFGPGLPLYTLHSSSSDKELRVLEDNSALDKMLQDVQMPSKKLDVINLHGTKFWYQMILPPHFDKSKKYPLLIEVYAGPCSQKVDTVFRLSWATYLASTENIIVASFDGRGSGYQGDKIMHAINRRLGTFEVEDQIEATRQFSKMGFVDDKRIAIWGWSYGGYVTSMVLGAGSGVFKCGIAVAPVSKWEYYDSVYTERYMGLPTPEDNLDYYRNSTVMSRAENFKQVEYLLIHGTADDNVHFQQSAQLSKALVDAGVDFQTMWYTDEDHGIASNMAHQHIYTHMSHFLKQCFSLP
Method: Measurement of the DPP-IV activity:
DPP-IV from porcine kidneys (Sigma, Munich)
H-Ala-Pro-AFC (Bachem, Weil am Rhein)
DPP-IV (1 mU/ml, end concentration)
H-Ala-Pro-AFC (15 μm end concentration)
in Tris/HCl (40 mM, pH 7.4), total volume 0.2 ml
The reaction was performed at room temperature for different periods (typically 10 minutes) and stopped at the end of the reaction by adding 20 μl of ZnCl2 (1 M). The conversion of H-AIa-Pro-AFC was determined fluorimetrically by measuring the emission at 535 nm on excitation at 405 nm. In the case of addition of inhibitors, the buffer volume added was adjusted such that a total volume of the test mixture of 200 μl was maintained.
IC50 values for inhibitors were determined by varying the inhibitor concentrations at the given substrate concentration of 15 μM. Ki and Km values were determined by corresponding variation of substrate and inhibitor concentration as described (Dixon, M. and Webb, E. C. (1979) Enzymes, third edition, pp. 47-206, Academic Press). The values for Km, IC50 and Ki were calculated using a commercially available software package (Leatherbarrow, R. J. (1992) GraFit Version 3.0, Erithacus Software Ltd. Staines, U.K.).

SMILES | IC50 [µM]
N[C@@H]1CCCN(c2nc3ccc(C(=O)NCc4cccc(C(F)(F)F)c4)cc3n2Cc2ccc(F)cc2)C1 [Example 2] | 1
N[C@@H]1CCCN(c2nc3ccc(C(=O)NCc4cccnc4)cc3n2Cc2ccc(F)cc2)C1 [Example 5] | 2.5
N[C@@H]1CCCN(c2nc3cc(C(=O)NCc4ccc(Cl)cc4)ccc3n2Cc2ccc(F)cc2)C1 [Example 6] | 4.3
CC(C)=CCn1c(N2CCC[C@@H](N)C2)nc2ccc(C(=O)Nc3ccc(F)cc3)cc21 [Example 11] | 1.8
